Measured values: PubChem BioAssay AID256 (DTP/NCI, 2004)
Where “and” joins values, the source holds several entries; their conditions need not be identical. Identical values can stand only once. Inconclusive results and toxic doses are left out.

System: CD2F1 mice, L1210 leukemia ip, survival T/C
Assay: NCI In Vivo Anticancer Drug Screen. Data for tumor model L1210 Leukemia (intraperitoneal) in CD2F1 (CDF1) mice
Settings: endpoint: mean survival time, higher = longer survival
Procedure, shortened: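 Ratio T/C, where T is the treated-group value and C the vehicle-dosed control value, from mice implanted with a transplantable tumor.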

[1] = dose: 100.0 mg/kg/injection, schedule: Q04DX003 (ip), vehicle: saline with Tween-80
[2] = dose: 200.0 mg/kg/injection, schedule: Q04DX003 (ip), vehicle: saline with Tween-80
[3] = dose: 400.0 mg/kg/injection, schedule: Q04DX003 (ip), vehicle: saline with Tween-80
[4] = dose: 100.0 mg/kg/injection, schedule: Q01DX001 (ip), vehicle: saline with Tween-80
[5] = dose: 200.0 mg/kg/injection, schedule: Q01DX001 (ip), vehicle: saline with Tween-80
[6] = dose: 400.0 mg/kg/injection, schedule: Q01DX001 (ip), vehicle: saline with Tween-80
[7] = dose: 100.0 mg/kg/injection, schedule: Q01DX001 (ip), vehicle: saline
[8] = dose: 200.0 mg/kg/injection, schedule: Q01DX001 (ip), vehicle: saline
[9] = dose: 400.0 mg/kg/injection, schedule: Q01DX001 (ip), vehicle: saline
[10] = dose: 100.0 mg/kg/injection, schedule: Q04DX003 (ip), vehicle: saline
[11] = dose: 200.0 mg/kg/injection, schedule: Q04DX003 (ip), vehicle: saline
[12] = dose: 100.0 mg/kg/injection, schedule: Q01DX009 (ip), vehicle: saline with Tween-80
[13] = dose: 25.0 mg/kg/injection, schedule: Q01DX009 (ip), vehicle: saline
[14] = dose: 25.0 mg/kg/injection, schedule: Q01DX009 (ip), vehicle: water
[15] = dose: 50.0 mg/kg/injection, schedule: Q01DX009 (ip), vehicle: saline
[16] = dose: 50.0 mg/kg/injection, schedule: Q01DX009 (ip), vehicle: water
[17] = dose: 100.0 mg/kg/injection, schedule: Q01DX009 (ip), vehicle: water
[18] = dose: 200.0 mg/kg/injection, schedule: Q01DX009 (ip), vehicle: water
[19] = dose: 400.0 mg/kg/injection, schedule: Q01DX009 (ip), vehicle: water
[20] = dose: 100.0 mg/kg/injection, schedule: Q04DX002 (ip), vehicle: saline with Tween-80
[21] = dose: 12.5 mg/kg/injection, schedule: Q01DX009 (ip), vehicle: water

## CCC(C)(S)C(NC(C)=O)C(=O)O (stereo not drawn)
[1]
  T/C: 98 % of control
[2]
  T/C: 101 % of control
[3]
  T/C: 104 % of control

## CC(C)CCCC(C)C1CCC2C3CC=C4CC(OCCC(C)C)CCC4(C)C3CCC12C (stereo not drawn)
[1]
  T/C: 97 % of control
[2]
  T/C: 95 % of control
[3]
  T/C: 88 % of control

## O=C(NC(=S)c1ccccc1)Nc1ccc(Cl)cc1
[4]
  T/C: 90 % of control
[5]
  T/C: 94 % of control
[6]
  T/C: 94 % of control

## Clc1ccc(-c2cc(C3CO3)c3cc(Cl)cc(Cl)c3n2)cc1 (stereo not drawn)
[7]
  T/C: 91 % of control
[8]
  T/C: 97 % of control
[9]
  T/C: 91 % of control

## O=C(CCN1CC1)Nc1cccc(NC(=O)CCN2CC2)c1
dose: 2.5 mg/kg/injection, schedule: Q01DX009 (ip), vehicle: Klucel (hydroxypropylcellulose) (HPC)
  T/C: 118 % of control
dose: 4.0 mg/kg/injection, schedule: Q01DX009 (ip), vehicle: Klucel (hydroxypropylcellulose) (HPC)
  T/C: 112 % of control
dose: 10.0 mg/kg/injection, schedule: Q01DX009 (ip), vehicle: Klucel (hydroxypropylcellulose) (HPC)
  T/C: 156 % of control and 165 % of control
dose: 15.0 mg/kg/injection, schedule: Q01DX009 (ip), vehicle: Klucel (hydroxypropylcellulose) (HPC)
  T/C: 108 % of control
dose: 20.0 mg/kg/injection, schedule: Q01DX009 (ip), vehicle: Klucel (hydroxypropylcellulose) (HPC)
  T/C: 96 % of control and 104 % of control

## N#CC[CH2][Sn]([c]1ccccc1)([c]1ccccc1)[c]1ccccc1
[1]
  T/C: 94 % of control
[2]
  T/C: 91 % of control
[3]
  T/C: 89 % of control

## OCC1CCCCCCC1
dose: 50.0 mg/kg/injection, schedule: Q01DX001 (ip), vehicle: carboxymethylcellulose (CMC)
  T/C: 100 % of control
dose: 100.0 mg/kg/injection, schedule: Q01DX001 (ip), vehicle: carboxymethylcellulose (CMC)
  T/C: 100 % of control
dose: 200.0 mg/kg/injection, schedule: Q01DX001 (ip), vehicle: carboxymethylcellulose (CMC)
  T/C: 102 % of control
dose: 400.0 mg/kg/injection, schedule: Q01DX001 (ip), vehicle: carboxymethylcellulose (CMC)
  T/C: 96 % of control

## Cc1cccc(/C=C/c2cccc[n+]2[O-])[n+]1[O-]
[10]
  T/C: 103 % of control
[11]
  T/C: 96 % of control
dose: 400.0 mg/kg/injection, schedule: Q04DX003 (ip), vehicle: saline
  T/C: 96 % of control

## Cc1ccc(S(=O)(=O)/N=S(\C)c2ccc(Cl)cc2)cc1 (stereo not drawn)
[1]
  T/C: 97 % of control
[2]
  T/C: 108 % of control
[3]
  T/C: 90 % of control

## COc1cc2c(c(OC)c1OC)-c1ccc(SC)c(=O)cc1C(NC(=S)NC1OC(COC(C)=O)C(OC(C)=O)C(OC(C)=O)C1OC(C)=O)CC2 (stereo not drawn)
dose: 50.0 mg/kg/injection, schedule: Q01DX009 (ip), vehicle: Klucel (hydroxypropylcellulose) (HPC)
  T/C: 86 % of control
dose: 100.0 mg/kg/injection, schedule: Q01DX009 (ip), vehicle: Klucel (hydroxypropylcellulose) (HPC)
  T/C: 89 % of control
dose: 200.0 mg/kg/injection, schedule: Q01DX009 (ip), vehicle: Klucel (hydroxypropylcellulose) (HPC)
  T/C: 101 % of control

## C=COCCSCC
dose: 50.0 mg/kg/injection, schedule: Q04DX003 (ip), vehicle: saline
  T/C: 98 % of control
[7]
  T/C: 98 % of control
[10]
  T/C: 98 % of control
[8]
  T/C: 97 % of control
[11]
  T/C: 104 % of control
[9]
  T/C: 101 % of control

## Cc1ccc(NC(=O)CCl)cc1Cl
dose: 50.0 mg/kg/injection, schedule: Q01DX009 (ip), vehicle: saline with Tween-80
  T/C: 95 % of control
[12]
  T/C: 90 % of control
[1]
  T/C: 98 % of control
[2]
  T/C: 89 % of control

## COc1cc(/C=N\NC(=O)CC#N)cc(OC)c1OC
[1]
  T/C: 94 % of control
[2]
  T/C: 98 % of control

## N#C[C@H](OC1OC(COC2OC(CO)C(O)C(O)C2O)C(O)C(O)C1O)c1ccccc1 (stereo partly drawn)
[13]
  T/C: 98 % of control
[14]
  T/C: 96 % of control
[15]
  T/C: 97 % of control
[16]
  T/C: 103 % of control
dose: 100.0 mg/kg/injection, schedule: Q01DX009 (ip), vehicle: saline
  T/C: 101 % of control
[17]
  T/C: 96 % of control
dose: 200.0 mg/kg/injection, schedule: Q01DX009 (ip), vehicle: saline
  T/C: 104 % of control
[18]
  T/C: 96 % of control
dose: 400.0 mg/kg/injection, schedule: Q01DX009 (ip), vehicle: saline
  T/C: 98 % of control
[19]
  T/C: 105 % of control
dose: 800.0 mg/kg/injection, schedule: Q01DX009 (ip), vehicle: saline
  T/C: 107 % of control
dose: 800.0 mg/kg/injection, schedule: Q01DX009 (ip), vehicle: water
  T/C: 102 % of control

## NC(N)=NCCCC(N=Cc1ccccc1)C(=O)O (stereo not drawn)
[7]
  T/C: 102 % of control
[8]
  T/C: 102 % of control
[9]
  T/C: 90 % of control

## CC1(C)COC(=O)C(C)(C)C1=O
dose: 25.0 mg/kg/injection, schedule: Q04DX002 (ip), vehicle: saline with Tween-80
  T/C: 107 % of control
dose: 50.0 mg/kg/injection, schedule: Q04DX002 (ip), vehicle: saline with Tween-80
  T/C: 96 % of control
[20]
  T/C: 96 % of control

## NC(=S)/C(N)=N/Nc1ccc(Cl)cc1
dose: 0.39 mg/kg/injection, schedule: Q01DX009 (ip), vehicle: saline
  T/C: 101 % of control
dose: 0.78 mg/kg/injection, schedule: Q01DX009 (ip), vehicle: saline
  T/C: 104 % of control
dose: 1.56 mg/kg/injection, schedule: Q01DX009 (ip), vehicle: saline
  T/C: 108 % of control
dose: 3.12 mg/kg/injection, schedule: Q01DX009 (ip), vehicle: saline
  T/C: 107 % of control
dose: 6.25 mg/kg/injection, schedule: Q01DX009 (ip), vehicle: saline
  T/C: 96 % of control and 110 % of control
dose: 12.5 mg/kg/injection, schedule: Q01DX009 (ip), vehicle: saline
  T/C: 113 % of control and 93 % of control
[13]
  T/C: 100 % of control
[15]
  T/C: 100 % of control

## N#CCc1ccccc1
dose: 10.0 mg/kg/injection, schedule: Q01DX001 (ip), vehicle: saline
  T/C: 105 % of control
dose: 20.0 mg/kg/injection, schedule: Q01DX001 (ip), vehicle: saline
  T/C: 105 % of control

## COc1cc2c(cc1OC)C(NC=O)CCC2 (stereo not drawn)
[21]
  T/C: 102 % of control
[14]
  T/C: 102 % of control
[16]
  T/C: 102 % of control
[17]
  T/C: 100 % of control
[18]
  T/C: 104 % of control

## CC(C)CC(=O)c1ccccc1O
[7]
  T/C: 100 % of control
[8]
  T/C: 97 % of control
[9]
  T/C: 96 % of control

## N#CC(C#N)=NNc1cccc(Cl)c1Cl
dose: 5.0 mg/kg/injection, schedule: Q04DX003 (ip), vehicle: saline with Tween-80
  T/C: 106 % of control
dose: 10.0 mg/kg/injection, schedule: Q04DX003 (ip), vehicle: saline with Tween-80
  T/C: 104 % of control
dose: 20.0 mg/kg/injection, schedule: Q04DX003 (ip), vehicle: saline with Tween-80
  T/C: 101 % of control

## C/C(=C/c1ccc([N+](=O)[O-])cc1)C(=O)O
[4]
  T/C: 103 % of control
[5]
  T/C: 100 % of control
[6]
  T/C: 103 % of control

## NC(N)=NC(N)=Nc1ccc(Cl)cc1
[12]
  T/C: 104 % of control
dose: 200.0 mg/kg/injection, schedule: Q01DX009 (ip), vehicle: saline with Tween-80
  T/C: 106 % of control

## Cc1cc(C)c(N2C(=O)C=CC2=O)c(C)c1
dose: 6.25 mg/kg/injection, schedule: Q01DX009 (ip), vehicle: saline with Tween-80
  T/C: 94 % of control

## Cc1cc(C(O)c2ccccn2)c2cc(Cl)cc(Cl)c2n1 (stereo not drawn)
[20]
  T/C: 97 % of control
dose: 200.0 mg/kg/injection, schedule: Q04DX002 (ip), vehicle: saline with Tween-80
  T/C: 102 % of control
dose: 400.0 mg/kg/injection, schedule: Q04DX002 (ip), vehicle: saline with Tween-80
  T/C: 97 % of control

## Nc1nc2ccc(CN(C=O)c3ccc(C(=O)NC(CCC(=O)O)C(=O)O)cc3)cc2c(=O)[nH]1 (stereo not drawn)
dose: 6.25 mg/kg/injection, schedule: Q01DX009 (ip), vehicle: water
  T/C: 94 % of control
[21]
  T/C: 102 % of control
[14]
  T/C: 105 % of control
[16]
  T/C: 107 % of control
[17]
  T/C: 119 % of control
[18]
  T/C: 107 % of control
[19]
  T/C: 100 % of control

## O=C(O)c1c[nH]c2ccccc2c1=O
[1]
  T/C: 101 % of control
[2]
  T/C: 101 % of control
[3]
  T/C: 90 % of control

## COc1ccc(-c2cc(C(=O)O)c3ccc(C)cc3n2)cc1
[1]
  T/C: 102 % of control
[2]
  T/C: 101 % of control
[3]
  T/C: 101 % of control

## CSc1ccccc1C(=O)O
[1]
  T/C: 102 % of control and 95 % of control
[2]
  T/C: 96 % of control and 101 % of control
[3]
  T/C: 102 % of control and 101 % of control

## Clc1nc(Cl)nc(-c2cccn2-c2ccccc2)n1
[12]
  T/C: 93 % of control
[1]
  T/C: 102 % of control
[2]
  T/C: 108 % of control
[3]
  T/C: 115 % of control
